Test results as given in paper PMC12114461, “A Natural Inhibitor, 1′S-1′-Acetoxychavicol Acetate, Against Testosterone-Induced Alopecia via NADPH Oxidase Regulation” (Molecules, 2025).

How the values were obtained:
Format in all cases: biochemical
[1] = target: T1, Nox1 (hNox1) (Homo sapiens, UniProt Q9Y5S8); assay: lucigenin chemiluminescence ROS assay in Drosophila membranes expressing hNox1
T1 construct: membranes from transgenic Drosophila (Duox knockdown) over-expressing human Nox1
T1 sequence (Q9Y5S8 1-564): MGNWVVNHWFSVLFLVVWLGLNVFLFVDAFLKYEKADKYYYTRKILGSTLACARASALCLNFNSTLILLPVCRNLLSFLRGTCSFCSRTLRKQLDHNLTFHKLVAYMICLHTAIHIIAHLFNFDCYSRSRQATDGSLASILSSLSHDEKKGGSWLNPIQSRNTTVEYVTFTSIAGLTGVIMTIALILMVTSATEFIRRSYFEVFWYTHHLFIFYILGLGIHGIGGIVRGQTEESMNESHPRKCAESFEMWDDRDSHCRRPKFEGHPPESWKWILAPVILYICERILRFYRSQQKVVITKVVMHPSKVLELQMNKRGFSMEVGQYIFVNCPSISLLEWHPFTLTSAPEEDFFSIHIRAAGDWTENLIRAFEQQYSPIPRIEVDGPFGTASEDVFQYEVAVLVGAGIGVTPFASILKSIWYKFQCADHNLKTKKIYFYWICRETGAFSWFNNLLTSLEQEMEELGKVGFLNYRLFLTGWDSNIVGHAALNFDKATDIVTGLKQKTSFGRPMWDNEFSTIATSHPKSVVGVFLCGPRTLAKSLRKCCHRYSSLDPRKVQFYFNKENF

[2] = target: T2, Duox1 (hDuox1) (Homo sapiens, UniProt Q9NRD9); assay: lucigenin chemiluminescence ROS assay in Drosophila membranes expressing hDuox1
T2 construct: membranes from transgenic Drosophila (Duox knockdown) over-expressing human Duox1
T2 sequence (Q9NRD9 22-1551): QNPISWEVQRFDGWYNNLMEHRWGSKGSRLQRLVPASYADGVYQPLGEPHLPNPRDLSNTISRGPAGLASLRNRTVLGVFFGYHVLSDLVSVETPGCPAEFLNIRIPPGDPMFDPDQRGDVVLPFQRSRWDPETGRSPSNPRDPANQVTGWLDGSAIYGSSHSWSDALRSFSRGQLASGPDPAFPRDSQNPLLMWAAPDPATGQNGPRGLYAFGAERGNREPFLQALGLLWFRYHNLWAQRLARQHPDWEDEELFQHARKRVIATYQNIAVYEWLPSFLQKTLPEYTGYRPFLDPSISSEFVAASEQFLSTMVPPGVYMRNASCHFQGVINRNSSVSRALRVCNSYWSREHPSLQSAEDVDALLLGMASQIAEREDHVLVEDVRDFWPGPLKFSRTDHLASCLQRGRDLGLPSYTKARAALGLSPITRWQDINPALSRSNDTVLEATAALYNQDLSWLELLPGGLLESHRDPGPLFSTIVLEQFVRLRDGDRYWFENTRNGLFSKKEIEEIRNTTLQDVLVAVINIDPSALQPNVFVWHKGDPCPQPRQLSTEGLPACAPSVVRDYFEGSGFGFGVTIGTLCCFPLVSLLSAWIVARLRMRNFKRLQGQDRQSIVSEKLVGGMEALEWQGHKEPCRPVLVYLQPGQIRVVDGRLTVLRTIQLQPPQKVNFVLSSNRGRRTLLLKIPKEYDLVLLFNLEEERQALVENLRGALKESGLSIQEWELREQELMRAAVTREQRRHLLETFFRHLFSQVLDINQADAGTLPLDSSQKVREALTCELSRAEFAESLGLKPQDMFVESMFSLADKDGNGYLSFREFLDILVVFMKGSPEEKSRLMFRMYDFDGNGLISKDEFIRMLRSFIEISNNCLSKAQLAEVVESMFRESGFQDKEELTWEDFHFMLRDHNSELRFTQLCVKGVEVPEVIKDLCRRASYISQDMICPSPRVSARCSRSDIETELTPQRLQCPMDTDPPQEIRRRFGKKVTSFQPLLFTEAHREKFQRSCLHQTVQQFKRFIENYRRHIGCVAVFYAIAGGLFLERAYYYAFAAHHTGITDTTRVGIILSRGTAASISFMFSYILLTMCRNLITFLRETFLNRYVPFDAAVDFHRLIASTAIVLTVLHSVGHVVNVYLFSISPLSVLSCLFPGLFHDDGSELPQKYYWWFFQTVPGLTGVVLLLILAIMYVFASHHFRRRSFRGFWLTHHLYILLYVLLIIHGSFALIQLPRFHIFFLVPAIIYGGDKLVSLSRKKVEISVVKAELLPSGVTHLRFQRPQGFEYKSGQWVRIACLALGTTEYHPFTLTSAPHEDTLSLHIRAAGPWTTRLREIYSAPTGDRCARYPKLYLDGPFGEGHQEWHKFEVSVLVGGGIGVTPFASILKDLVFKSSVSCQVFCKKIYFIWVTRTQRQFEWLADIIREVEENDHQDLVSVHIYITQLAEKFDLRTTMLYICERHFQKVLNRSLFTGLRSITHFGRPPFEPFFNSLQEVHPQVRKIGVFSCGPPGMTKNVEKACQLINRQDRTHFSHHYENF

[3] = target: T3, Nox2 (hNox2) (Homo sapiens, UniProt P04839); assay: lucigenin chemiluminescence ROS assay in Drosophila membranes expressing hNox2
T3 construct: gene CYBB; membranes from transgenic Drosophila (Duox knockdown) over-expressing human Nox2
T3 sequence (P04839 2-570): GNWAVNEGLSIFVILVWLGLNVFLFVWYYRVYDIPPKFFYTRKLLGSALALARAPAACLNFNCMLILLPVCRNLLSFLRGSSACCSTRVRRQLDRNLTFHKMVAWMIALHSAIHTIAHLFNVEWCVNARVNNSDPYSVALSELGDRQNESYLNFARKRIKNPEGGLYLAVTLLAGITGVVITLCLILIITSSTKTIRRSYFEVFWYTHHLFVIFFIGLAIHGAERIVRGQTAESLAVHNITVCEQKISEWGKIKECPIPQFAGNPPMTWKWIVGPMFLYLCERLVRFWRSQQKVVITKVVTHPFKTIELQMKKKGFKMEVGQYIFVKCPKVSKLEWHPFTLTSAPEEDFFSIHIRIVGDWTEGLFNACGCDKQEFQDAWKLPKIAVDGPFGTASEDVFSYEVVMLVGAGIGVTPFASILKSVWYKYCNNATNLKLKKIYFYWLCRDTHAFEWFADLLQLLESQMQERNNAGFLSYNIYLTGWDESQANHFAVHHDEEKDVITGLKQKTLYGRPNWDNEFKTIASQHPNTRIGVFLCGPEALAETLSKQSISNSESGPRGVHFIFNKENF

[4] = target: T4, Nox4 (hNox4) (Homo sapiens, UniProt Q9NPH5); assay: lucigenin chemiluminescence ROS assay in Drosophila membranes expressing hNox4
T4 construct: membranes from transgenic Drosophila (Duox knockdown) over-expressing human Nox4
T4 sequence (Q9NPH5 1-578): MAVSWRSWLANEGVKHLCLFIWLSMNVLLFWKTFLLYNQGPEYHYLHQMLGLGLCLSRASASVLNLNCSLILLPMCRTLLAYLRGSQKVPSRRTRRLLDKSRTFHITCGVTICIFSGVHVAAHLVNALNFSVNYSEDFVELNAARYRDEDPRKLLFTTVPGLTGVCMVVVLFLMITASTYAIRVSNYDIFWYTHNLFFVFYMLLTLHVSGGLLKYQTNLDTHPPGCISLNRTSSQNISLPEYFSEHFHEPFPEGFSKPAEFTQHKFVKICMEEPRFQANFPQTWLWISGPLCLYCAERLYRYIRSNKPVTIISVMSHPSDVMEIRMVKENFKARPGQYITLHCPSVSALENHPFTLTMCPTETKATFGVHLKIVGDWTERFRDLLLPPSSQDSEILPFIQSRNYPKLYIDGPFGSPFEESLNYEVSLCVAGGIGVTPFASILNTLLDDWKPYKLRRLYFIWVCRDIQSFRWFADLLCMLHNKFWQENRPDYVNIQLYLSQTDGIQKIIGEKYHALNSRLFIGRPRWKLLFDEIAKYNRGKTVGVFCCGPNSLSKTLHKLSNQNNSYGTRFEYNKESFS

SMILES: C=C[C@H](OC(C)=O)c1ccc(OC(C)=O)cc1 [compound 26, 1′S-1′-acetoxychavicol acetate]
- IC50 [1]: 32.7 µM
- IC50 [2]: 30.8 µM
- IC50 [3]: 42.3 µM
- IC50 [4]: 31.3 µM
